Laboratory results reported in PMC8473062, “Stability and Safety of Inhibitor Cystine Knot Peptide, GTx1-15, from the Tarantula Spider Grammostola rosea” (Toxins, 2021).
Read-outs that look alike come from different tables or passages of the source.

Tests used:
[1] = Protein thermal shift assay; format: physicochemical; details: Protein Thermal Shift kit, heated 25 to 99 °C at 1 °C/min
Protocol: The protein thermal shift assay was conducted with the StepOne Real-Time PCR System (Thermo Fisher Scientific) using the Protein Thermal Shift Assay Kit according to the manufacturer’s instructions with Protein Thermal Shift Software version 1. The protein melt reaction mix was added to the wells of a 48-well PCR plate. The plate was heated from 25 to 99 °C with a heating rate of 1 °C/min. The software allows the user to calculate a melting temperature (Tm) from their melt curve data using the Boltzmann equation (Tm B).

[2] = cited from earlier work; for degradation after thermal incubation: 24 h
Protocol: Cyclotides are cystine-knotted peptides in which the N- and C-termini are cyclized. Kalata B1 is a well-known cyclotide that consists of 29 amino acids and is not degraded after heating to temperatures approaching boiling. The insecticidal spider toxin ω-hexatoxin-Hv1a is an ICK peptide whose thermal stability has been investigated. After incubating it for 24 h at 50 °C, 75 °C or 95 °C, ω-hexatoxin-Hv1a is degraded about 20%, 30% and 90%, respectively. In contrast, GTx1-15 degraded only 30% after a 24-h incubation at 95 °C.

[3] = cited from earlier work
Protocol: We previously reported that ProTxII (an ICK peptide) remains in circulation for over 4 h. Similar to those results, GTx1-15 retains an effective concentration in circulation for over several hours.

THP-1 cells = assay: Antigenicity assay (CD80, CD86, CD54 expression by real-time PCR); details: positive control 4 μg/mL, 24 h exposure, RT-PCR, one range for the three genes
Protocol: THP-1 cells were cultured as described above. For antigenicity assays, 2.4 × 10^6 THP-1 cells were inoculated into single wells of a 12-well plate with 1.2 mL RPMI-1640 medium. […] As a negative control, RPMI-1640 was added. After a 24-h incubation, THP-1 cells were collected via centrifugation at 1000× g for 5 min, and then total RNA was extracted from cells using an RNeasy Mini Kit (QIAGEN, Hilden, Germany) according to the manufacturer’s instructions. Total RNA was treated with DNase (QIAGEN) for 10 min to digest contaminating genomic DNA and purified by an RNeasy MinElute Cleanup Kit (QIAGEN). Complementary DNA was synthesized with PrimeScript Reverse Transcriptase (Takara Bio) with an oligo (dT)12-18 primer (Invitrogen, Waltham, USA), 10 mM each dNTP mixture (Promega, Madison, USA), and RNase Inhibitor (Takara Bio). Real-time PCR mixtures were prepared with SYBR Premix Ex Taq (Takara Bio) according to the manufacturer’s instructions. […] Primers for real-time PCR were designed using Roche ProbeFinder version 2.45 (http://qpcr.probefinder.com/roche3.html. This site is stopped at the end of 2020).

Q: For “ProTxI: ICK peptide compared in the protein thermal shift assay (ECRYWLGGCSAGQTCCKHLVCSRRHGWCVWDGTFS; UniProt P83480 1-35, looked up)”, which “Tm B (Boltzmann melting temperature)” value [1] is on record?
A: 93.23 ± 0.12 °C

Q: With GsMTx4 as the compound, how does the “Tm B (Boltzmann melting temperature)” value [1] read?
A: 95.26 ± 0.10 °C

Q: For “Kalata B1: well-known cyclotide of 29 amino acids; cystine-knotted peptide with N- and C-termini cyclized (cyclo(GLPVCGETCVGGTCNTPGCTCSWPVCTRN); disulfide (positions not given here); also: cystine-knotted (disulfide places not given here); UniProt P56254 89-117, looked up)”, which degradation after heating ([2]; heating to temperatures approaching boiling) is on record?
A: not degraded

Q: With “ProTxII: ICK peptide compared in the protein thermal shift assay” as the compound, how does the “time remaining in circulation” value [3] read?
A: over 4 h

Q: And the “Tm B (Boltzmann melting temperature)” value [1]?
A: 93.95 ± 0.12 °C

Q: For `O=[N+]([O-])c1ccc(Cl)c([N+](=O)[O-])c1` [DNCB, 2,4-Dinitrochlorobenzene], which “increase in expression of CD80, CD86 and CD54 genes” value (THP-1 cells) is on record?
A: 20–70 times

Q: Which results are given for ω-hexatoxin-Hv1a?
A: degradation after thermal incubation ([2]; 50 °C): about 20%; degradation after thermal incubation ([2]; 75 °C): ~30%; degradation after thermal incubation ([2]; 95 °C): ~90%
